Assay results taken from EP2520566A1, “New Pharmaceutical Compounds” (Orion Corporation, priority 2011, dated 2012).

Molecular target: TRPA1 (Homo sapiens, UniProt O75762)
Test: Determination of TRPA1 activity in vitro (TRPA1 antagonism in vitro), procedure of Wei et al., Anesthesiology 111 (2009) 147-154
Assay type: cell-based
Excerpt: EXPERIMENT 1: Determination of TRPA1 activity in vitro
The illustrative examples of the present invention were screened for TRPA1 activity according to a procedure described in Wei et al., Anesthesiology 111 (2009) 147-154. Table 1. TRPA1 antagonism in vitro.

Chain of TRPA1 (O75762 whole entry): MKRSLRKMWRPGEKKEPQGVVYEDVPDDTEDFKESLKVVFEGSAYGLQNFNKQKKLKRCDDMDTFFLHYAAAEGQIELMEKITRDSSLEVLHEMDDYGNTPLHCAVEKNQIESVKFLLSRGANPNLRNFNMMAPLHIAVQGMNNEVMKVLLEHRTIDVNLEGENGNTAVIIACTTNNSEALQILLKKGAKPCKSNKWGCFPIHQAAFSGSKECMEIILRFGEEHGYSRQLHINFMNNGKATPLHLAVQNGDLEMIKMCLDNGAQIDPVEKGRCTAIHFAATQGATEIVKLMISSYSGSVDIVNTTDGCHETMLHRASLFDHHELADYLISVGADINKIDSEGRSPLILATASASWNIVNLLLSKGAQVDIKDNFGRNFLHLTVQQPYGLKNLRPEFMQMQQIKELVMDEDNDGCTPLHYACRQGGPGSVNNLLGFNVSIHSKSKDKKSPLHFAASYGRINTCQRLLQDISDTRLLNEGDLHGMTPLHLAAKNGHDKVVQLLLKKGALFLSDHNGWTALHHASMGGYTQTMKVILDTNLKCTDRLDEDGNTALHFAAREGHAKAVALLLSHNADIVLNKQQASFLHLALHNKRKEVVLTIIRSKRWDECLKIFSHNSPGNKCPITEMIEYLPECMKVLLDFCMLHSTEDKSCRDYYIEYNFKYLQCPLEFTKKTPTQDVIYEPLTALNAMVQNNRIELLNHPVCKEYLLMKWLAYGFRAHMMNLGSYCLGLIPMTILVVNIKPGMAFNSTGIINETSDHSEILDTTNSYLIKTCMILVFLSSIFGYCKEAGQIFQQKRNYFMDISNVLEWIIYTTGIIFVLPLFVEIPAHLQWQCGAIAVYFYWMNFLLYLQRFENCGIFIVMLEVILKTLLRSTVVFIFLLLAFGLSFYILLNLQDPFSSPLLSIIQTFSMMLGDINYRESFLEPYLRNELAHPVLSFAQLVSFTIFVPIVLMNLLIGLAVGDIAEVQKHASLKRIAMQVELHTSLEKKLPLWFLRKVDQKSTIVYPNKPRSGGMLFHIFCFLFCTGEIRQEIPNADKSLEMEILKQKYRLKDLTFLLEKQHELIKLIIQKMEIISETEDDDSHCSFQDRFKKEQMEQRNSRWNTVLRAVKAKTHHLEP

CC(C)CSc1ccnc(CNC(=O)[C@@H]2CCCN2S(=O)(=O)c2ccc(F)cc2)c1 [Example 31, (S)-1-(4-Fluorophenylsulfonyl)-N-((4-(isobutylthio)pyridin-2-yl)methyl) pyrrolidine-2-carboxamide]
IC50: 8.5 µM
